Our source for the Ki values is US8114871B2, “3-amido-pyrrolo[3,4-C]pyrazole-5(1H,4H,6H) carbaldehyde derivatives” (Pfizer Inc., priority 2007, dated 2012).

The assay addresses Protein Kinase C beta 2 (PKCβII) (Homo sapiens, UniProt P05771). As to the kind of experiment: PKCβII coupled PK/LDH spectrophotometric kinase assay (decrease of NADH absorbance at 340 nm). It is filed as biochemical. To be noted: apparent Ki, Morrison fit, 0.1 mM ATP, 30° C., pH 7.4; read-out: PKCb Ki. The procedure:
This transfer is coupled to the oxidation of p-NADH through the activities of Pyruvate Kinase (PK) and Lactate Dehydrogenase (LDH).
A typical assay was carried out on a 96-well, clear microtiter plate in a Molecular Devices spectrophotometer for 20 minutes at 30° C. in 0.1 mL of assay buffer containing 50 mM HEPES, pH 7.4, 5 nM PKC, 23 units of pyruvate kinase, 33 units of lactate dehydrogenase, 0.15 mM peptide, 0.1 mM ATP, 1 mM DTT, 4 mM PEP, 8 mM MgCl2, 0.3 mM NADH, 60 mM CaCl2, 10 mg/mL PS, 50 ng/mL PMA, 7.5% DMSO and from about 10,000 nM to 0.169 nM compound inhibitor. Stock solutions of 3-sn-phosphatidyl-L-serine (PS) and phorbol-12-myristate-13-acetate (PMA) were sonicated for 30 seconds just prior to addition to assay buffer and assays were initiated by the addition of 100 μM ATP.
Enzyme turnover values (kcat) were calculated according to […], where [E] is the total enzyme concentration. […] Morrison, J. F., Biochim. Biophys Acta 185: 269-286 (1969).

Protein Kinase C beta 2 (PKCβII), sequence (P05771 1-673 isoform P05771-2): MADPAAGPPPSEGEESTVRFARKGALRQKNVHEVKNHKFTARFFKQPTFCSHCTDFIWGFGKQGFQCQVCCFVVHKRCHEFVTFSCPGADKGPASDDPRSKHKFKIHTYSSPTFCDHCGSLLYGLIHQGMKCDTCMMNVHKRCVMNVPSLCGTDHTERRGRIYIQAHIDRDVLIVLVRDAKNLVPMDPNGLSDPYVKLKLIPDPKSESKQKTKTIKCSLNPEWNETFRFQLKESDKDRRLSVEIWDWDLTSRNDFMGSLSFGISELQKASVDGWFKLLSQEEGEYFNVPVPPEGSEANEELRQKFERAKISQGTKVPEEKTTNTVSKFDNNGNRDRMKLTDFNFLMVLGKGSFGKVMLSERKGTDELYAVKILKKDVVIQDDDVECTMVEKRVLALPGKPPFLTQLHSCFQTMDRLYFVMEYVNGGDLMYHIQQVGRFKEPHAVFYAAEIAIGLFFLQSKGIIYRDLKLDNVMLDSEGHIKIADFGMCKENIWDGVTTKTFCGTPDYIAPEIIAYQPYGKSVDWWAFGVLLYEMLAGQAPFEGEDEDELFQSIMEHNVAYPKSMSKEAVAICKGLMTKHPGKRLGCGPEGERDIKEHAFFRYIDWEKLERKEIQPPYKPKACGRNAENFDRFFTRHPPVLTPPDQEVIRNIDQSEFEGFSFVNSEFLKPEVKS

In the case of `CCOc1cccc(C(=O)Nc2n[nH]c3c2CN(C(=O)N2C[C@@H]4CCCN4C[C@@H]2C)C3(C)C)c1` [Example E5, N-(6,6-dimethyl-5-((3S,8aS)-3-methyl-octahydropyrrolo[1,2-a]pyrazine-2-carbonyl)-1,4,5,6-tetrahydropyrrolo[3,4-c]pyrazol-3-yl)-3-ethoxybenzamide], the Ki is 37.5 nM.
